Results published in the NIST ThermoML archive (doi:10.1016/j.fluid.2006.10.025).
Where “and” joins values, the source holds several entries; their conditions need not be identical. Equal entries are not always repeated. Numbers after ± are expanded uncertainties.

Details: 101.33 kPa, Liquid

OCC(F)(F)C(F)(F)C(F)(F)C(F)(F)C(F)(F)C(F)F [1,1,7-trihydrododecafluoroheptan-1-ol]
Details | mass density
293.15 K | 1750.1 ± 7.8 kg/m3 and 1750.2 ± 7.8 kg/m3
303.15 K | 1732.7 ± 7.6 kg/m3
313.15 K | 1715 ± 7.4 kg/m3
323.15 K | 1696.9 ± 7.3 kg/m3
333.15 K | 1678.5 ± 7.1 kg/m3
343.15 K | 1659.7 ± 6.9 kg/m3
